The values that follow come from PMC11191317, “PNSC928, a plant-derived compound, specifically disrupts CtBP2-p300 interaction and reduces inflammation in mice with acute respiratory distress syndrome” (Biology Direct, 2024).

One test has as its system RAW264.7 cells. Briefly: RT-qPCR of CtBP2/p300/NF-κB target genes in LPS-treated RAW264.7 cells (PNSC928). The format is cell-based, mouse. The settings on record: LPS + PNSC928 23.6 and 47.2 µM, 6 h. Here is the method: For LPS treatment, different knockdown (KD) cell lines—Control^KD, CtBP2^KD, p300^KD, and p65^KD, all derived from MPAEpiC—were seeded in 12-well plates and cultured at 37 °C until reaching 80% confluence. The cells were then treated with 200 ng/mL of LPS for 6 h, washed three times with PBS, and subjected to the required experiments. For experiments involving inhibitors of CtBP2, p300, and NF-κB, as well as the compound PNSC928, MPAEpiC, RAW264.7, FL83B, TKPTS, and HL-1 cells were seeded in 12-well plates and cultured at 37 °C to reach 80% confluence. […]
RNA was isolated from both cultured cells and mouse lung tissues utilizing the TRIzol Reagent (Invitrogen; Shanghai, China; #15,596,018) in adherence to the manufacturer’s protocol. […] Gene expression quantification was carried out using the SYBR GreenER qPCR SuperMix Universal (Thermo Fisher; #1176202K) in combination with the specific primers delineated in Table S3. […]
Fig. 5 Determination of PNSC928 cytotoxicity and evaluation of PNSC928 effects on the expression levels of CtBP2/p300/NF-κB target genes. […] Cell viability was assessed every 24 h for 5 days. […] Subsequently, RNA isolation and RT-qPCR analysis were performed to quantify mRNA levels of various genes. […]
For orientation: Real-time PCR tracks product formation cycle by cycle.

For test [1], the target named is T1, CtBP2-p300^BRD interaction (Mus musculus, UniProt B2RWS6+P56546).
T1 construct: R1 (1-1000 amino acids, aa), R2 (1001–1201 aa), R3 (1202–1810 aa); made in house; host or cells: E. coli BL21
Briefly: In vitro pulldown assay with His-CtBP2 and GST-p300^BRD. The format is binding. The settings on record: PNSC928 0, 11.8, 23.6, and 47.2 µM; 80 nM GST-p300^BRD and 40 nM His-CtBP2. Here is the method: Fig. 4 Identification of PNSC928 and determination of its in vitro and in vivo effects on disruption of CtBP2-p300 interaction. (A) A schematic representation illustrating four regions of the p300 amino acid sequence. (B) Co-IP results. Different combinations of plasmids were cotransfected into MPAEpiC cells. After a 48-hour incubation, cells were lysed and used for immunoprecipitation with anti-Flag agarose. The input and output proteins were probed with anti-Flag and anti-Myc antibodies. n = 3. (C) A schematic representation illustrating the in vitro AlphaScreen setup. (D) AlphaScreen signals for different concentrations of His-CtBP2 and GST-p300^BRD. (E) Chemical structure of PNSC928. (F) IC50 of PNSC928 disrupting CtBP2-p300^BRD interaction. (G and H) In vitro pulldown assay in a reaction consisting of His-CtBP2, GST-p300^BRD, and incremental concentrations of PNSC928 (0, 11.8, 23.6, and 47.2 µM). (G) Pulldown with Ni-NTA beads; (H) Pulldown with GST beads.
To probe this interaction, we established an AlphaScreen system that utilized GST-p300^BRD and His-CtBP2, binding to donor and acceptor beads, respectively (Fig. 4C). […] In vitro assays assessed the effects of PNSC928 on the CtBP2-p300^BRD interaction. […] Furthermore, we assessed the impact of combined LPS and PNSC928 treatment on the expression of key molecules in the NF-κB signaling pathway.

T1 sequence (B2RWS6 1001-1201 limits assumed): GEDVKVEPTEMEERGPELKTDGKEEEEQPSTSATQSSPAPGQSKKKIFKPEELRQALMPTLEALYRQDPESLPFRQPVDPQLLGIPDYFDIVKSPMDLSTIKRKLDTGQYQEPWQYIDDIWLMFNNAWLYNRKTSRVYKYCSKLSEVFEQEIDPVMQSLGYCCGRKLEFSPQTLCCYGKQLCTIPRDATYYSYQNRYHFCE
T1 sequence (P56546 whole entry, the tested form may be a part): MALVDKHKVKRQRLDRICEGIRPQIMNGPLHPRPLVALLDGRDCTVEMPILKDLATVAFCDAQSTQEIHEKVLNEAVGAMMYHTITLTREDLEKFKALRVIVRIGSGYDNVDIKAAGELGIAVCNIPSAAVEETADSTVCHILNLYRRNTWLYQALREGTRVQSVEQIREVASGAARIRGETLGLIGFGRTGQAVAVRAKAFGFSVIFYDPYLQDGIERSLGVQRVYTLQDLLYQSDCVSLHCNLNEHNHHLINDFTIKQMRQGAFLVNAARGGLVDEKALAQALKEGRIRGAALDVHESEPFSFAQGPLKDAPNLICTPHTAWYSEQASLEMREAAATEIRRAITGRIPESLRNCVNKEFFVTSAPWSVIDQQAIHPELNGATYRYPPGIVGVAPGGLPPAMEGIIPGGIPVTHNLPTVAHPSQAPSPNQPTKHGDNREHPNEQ

`CC(=CCCC1=CCC(C2COC(=O)C2)OC1O)CCC1=C(C)CCCC1(C)C` (stereo not drawn) [PNSC928]: in the test on RAW264.7 cells, the “Expression levels of CDH1, CDKN1A, CDKN2A, CHRD, PAX6, BAX, NOD2, CCL2, CXCL10, CXCL12, MMP1, STAT1, MIP2, CCR5, GM-CSF, VEGF, COX2, and iNOS” value was “did not alter the expression levels”; the “LPS-induced IL-1B, IL-6, IL-15, IL-18, TNFA, and IFNG expressions” value is recorded as “dose-dependent reversal”. In test [1], the “Effect on CtBP2-p300^BRD interaction in pulldown assay” value is “disrupts the CtBP2-p300^BRD interaction in a dose-dependent manner”.
